Key:
Assay in all cases: relative viability (nuclei count vs DMSO), 5 days (fraction); higher = more cells survive
EPLC-272H = test system: EPLC-272H
In short: (§1)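 Dosing by pin tool came one day after lung cancer cell lines were seeded in 1536-well plates, using either one drug or a fixed anchor-drug dose plus five library-drug doses (not always all listed) in √10 steps. After 5 days, nuclei were counted on 4× images. Relative viability is treated-well nuclei count divided by vehicle-well nuclei count, and values are medians of duplicate plates.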

H3255 = test system: H3255
In short: as §1

HARA = test system: HARA
In short: as §1

LC-2-ad = test system: LC-2-ad
In short: as §1

LOU-NH91 = test system: LOU-NH91
In short: as §1

NCI-H1651 = test system: NCI-H1651
In short: as §1

NCI-H1975 = test system: NCI-H1975
In short: as §1

NCI-H2009 = test system: NCI-H2009
In short: as §1

NCI-H2023 = test system: NCI-H2023
In short: as §1

NCI-H2085 = test system: NCI-H2085
In short: as §1

NCI-H2087 = test system: NCI-H2087
In short: as §1

NCI-H2228 = test system: NCI-H2228
In short: as §1

NCI-H23 = test system: NCI-H23
In short: as §1

NCI-H441 = test system: NCI-H441
In short: as §1

NCI-H650 = test system: NCI-H650
In short: as §1

NCI-H727 = test system: NCI-H727
In short: as §1

NCI-H838 = test system: NCI-H838
In short: as §1

PC-3 [JPC-3] = test system: PC-3 [JPC-3]
In short: as §1

SW 1573 = test system: SW 1573
In short: as §1

UMC-11 = test system: UMC-11
In short: as §1

## Cc1cn(-c2cc(NC(=O)c3ccc(C)c(Nc4nccc(-c5cccnc5)n4)c3)cc(C(F)(F)F)c2)cn1 [Nilotinib] + C[C@]1(O)C[C@@H](c2nc(-c3ccc4ccc(-c5ccccc5)nc4c3)c3c(N)nccn32)C1 [Linsitinib] (partner 1 µM)
EPLC-272H; first compound 0.001 µM
  relative viability: 1.38
EPLC-272H; first compound 0.003162 µM
  relative viability: 1.34
EPLC-272H; first compound 0.01 µM
  relative viability: 1.42
EPLC-272H; first compound 0.03162 µM
  relative viability: 1.08
EPLC-272H; first compound 0.1 µM
  relative viability: 1.18
H3255; first compound 0.001 µM
  relative viability: 0.817
H3255; first compound 0.003162 µM
  relative viability: 1.06
H3255; first compound 0.01 µM
  relative viability: 1.2
H3255; first compound 0.03162 µM
  relative viability: 0.875
H3255; first compound 0.1 µM
  relative viability: 0.952
HARA; first compound 0.001 µM
  relative viability: 0.987
HARA; first compound 0.003162 µM
  relative viability: 1.37
HARA; first compound 0.01 µM
  relative viability: 1.3
HARA; first compound 0.03162 µM
  relative viability: 0.742
HARA; first compound 0.1 µM
  relative viability: 0.93
LC-2-ad; first compound 0.001 µM
  relative viability: 0.862
LC-2-ad; first compound 0.003162 µM
  relative viability: 0.985
LC-2-ad; first compound 0.01 µM
  relative viability: 1.02
LC-2-ad; first compound 0.03162 µM
  relative viability: 0.897
LC-2-ad; first compound 0.1 µM
  relative viability: 0.735
LOU-NH91; first compound 0.001 µM
  relative viability: 0.929
LOU-NH91; first compound 0.003162 µM
  relative viability: 1.01
LOU-NH91; first compound 0.01 µM
  relative viability: 0.976
LOU-NH91; first compound 0.03162 µM
  relative viability: 0.926
LOU-NH91; first compound 0.1 µM
  relative viability: 0.917
NCI-H1651; first compound 0.001 µM
  relative viability: 1.08
NCI-H1651; first compound 0.003162 µM
  relative viability: 1.42
NCI-H1651; first compound 0.01 µM
  relative viability: 1.32
NCI-H1651; first compound 0.03162 µM
  relative viability: 0.879
NCI-H1651; first compound 0.1 µM
  relative viability: 1.06
NCI-H1975; first compound 0.001 µM
  relative viability: 0.913
NCI-H1975; first compound 0.003162 µM
  relative viability: 1.23
NCI-H1975; first compound 0.01 µM
  relative viability: 1.03
NCI-H1975; first compound 0.03162 µM
  relative viability: 0.688
NCI-H1975; first compound 0.1 µM
  relative viability: 0.822
NCI-H2009; first compound 0.001 µM
  relative viability: 1.07
NCI-H2009; first compound 0.003162 µM
  relative viability: 1.28
NCI-H2009; first compound 0.01 µM
  relative viability: 1.22
NCI-H2009; first compound 0.03162 µM
  relative viability: 1.18
NCI-H2009; first compound 0.1 µM
  relative viability: 1.15
NCI-H2023; first compound 0.001 µM
  relative viability: 0.74
NCI-H2023; first compound 0.003162 µM
  relative viability: 0.735
NCI-H2023; first compound 0.01 µM
  relative viability: 0.798
NCI-H2023; first compound 0.03162 µM
  relative viability: 0.666
NCI-H2023; first compound 0.1 µM
  relative viability: 0.525
NCI-H2085; first compound 0.001 µM
  relative viability: 0.864
NCI-H2085; first compound 0.003162 µM
  relative viability: 1.08
NCI-H2085; first compound 0.01 µM
  relative viability: 1.15
NCI-H2085; first compound 0.03162 µM
  relative viability: 0.888
NCI-H2085; first compound 0.1 µM
  relative viability: 0.884
NCI-H2087; first compound 0.001 µM
  relative viability: 0.855
NCI-H2087; first compound 0.003162 µM
  relative viability: 0.949
NCI-H2087; first compound 0.01 µM
  relative viability: 1.08
NCI-H2087; first compound 0.03162 µM
  relative viability: 0.852
NCI-H2087; first compound 0.1 µM
  relative viability: 0.66
NCI-H2228; first compound 0.001 µM
  relative viability: 0.578
NCI-H2228; first compound 0.003162 µM
  relative viability: 0.862
NCI-H2228; first compound 0.01 µM
  relative viability: 0.603
NCI-H2228; first compound 0.03162 µM
  relative viability: 0.657
NCI-H2228; first compound 0.1 µM
  relative viability: 0.623
NCI-H23; first compound 0.001 µM
  relative viability: 0.556
NCI-H23; first compound 0.003162 µM
  relative viability: 0.686
NCI-H23; first compound 0.01 µM
  relative viability: 0.713
NCI-H23; first compound 0.03162 µM
  relative viability: 0.49
NCI-H23; first compound 0.1 µM
  relative viability: 0.579
NCI-H441; first compound 0.001 µM
  relative viability: 0.503
NCI-H441; first compound 0.003162 µM
  relative viability: 0.588
NCI-H441; first compound 0.01 µM
  relative viability: 0.482
NCI-H441; first compound 0.1 µM
  relative viability: 0.512
NCI-H650; first compound 0.001 µM
  relative viability: 0.81
NCI-H650; first compound 0.003162 µM
  relative viability: 0.778
NCI-H650; first compound 0.01 µM
  relative viability: 0.925
NCI-H650; first compound 0.03162 µM
  relative viability: 0.84
NCI-H650; first compound 0.1 µM
  relative viability: 0.686
NCI-H727; first compound 0.001 µM
  relative viability: 0.225
NCI-H727; first compound 0.01 µM
  relative viability: 0.368
NCI-H727; first compound 0.03162 µM
  relative viability: 0.275
NCI-H727; first compound 0.1 µM
  relative viability: 0.263
NCI-H838; first compound 0.001 µM
  relative viability: 0.989
NCI-H838; first compound 0.003162 µM
  relative viability: 1.37
NCI-H838; first compound 0.01 µM
  relative viability: 1.39
NCI-H838; first compound 0.03162 µM
  relative viability: 0.967
NCI-H838; first compound 0.1 µM
  relative viability: 0.968
PC-3 [JPC-3]; first compound 0.001 µM
  relative viability: 0.997
PC-3 [JPC-3]; first compound 0.003162 µM
  relative viability: 1.1
PC-3 [JPC-3]; first compound 0.01 µM
  relative viability: 1.09
PC-3 [JPC-3]; first compound 0.03162 µM
  relative viability: 1.01
PC-3 [JPC-3]; first compound 0.1 µM
  relative viability: 0.927
SW 1573; first compound 0.001 µM
  relative viability: 0.939
SW 1573; first compound 0.003162 µM
  relative viability: 0.935
SW 1573; first compound 0.01 µM
  relative viability: 0.73
SW 1573; first compound 0.03162 µM
  relative viability: 0.756
SW 1573; first compound 0.1 µM
  relative viability: 0.841
UMC-11; first compound 0.001 µM
  relative viability: 1
UMC-11; first compound 0.003162 µM
  relative viability: 1.26
UMC-11; first compound 0.01 µM
  relative viability: 1.27
UMC-11; first compound 0.1 µM
  relative viability: 1.13

From the supplement of paper PMC10307832
